Patent publication US20250018029A1, “METHODS TO ALTER THE TUMOR MICROENVIRONMENT FOR EFFECTIVE CANCER IMMUNOTHERAPY” (PDS BIOTECHNOLOGY CORPORATION, priority 2016, published 2025)
No end group written: not given here. *: point of attachment. Palmitoyl = CCCCCCCCCCCCCCCC(=O)*

Key:
[1] = system: OT1 splenocytes (TCR transgenic T cells specific for SIINFEKL); assay: Cross-presentation of OVA by DC to MHC class I restricted OT-1 T cells (3H-thymidine uptake); assay type: cell-based, mouse; settings: whole OVA protein, 25 uM lipid, 37° C., versus OVA without cationic lipid
Procedure: FIG. 3: R-DOTAP enhancement of antigen processing results in enhancement of cross-presentation to MHC class I restricted T cells. Bone marrow derived DC were incubated in the presence of various concentrations of whole OVA protein and 25 uM DOTAP or DOTMA for 30 min at 37° C. or 4° C.
In order to verify that the cationic lipid facilitated uptake of antigen translates into enhanced antigen presentation on MHC class I (cross presentation), T cells from a TCR transgenic mouse (OT-1) were utilized in which all T cells are specific for an internal peptide of OVA. These T-cells will only proliferate if presented with DCs which have processed OVA and presented an OVA peptide on MHC class I molecules. Thus, this represents a stringent assay for cross-presentation. BMDC were incubated with different concentrations of the whole OVA protein in the presence or absence of two cationic lipids, either DOTAP or DOTMA for 1 hour at 37° C. The DCs were then washed, fixed and added to the OVA peptide specific T-cells. […] This response was dose dependent with respect to the OVA concentration, and was even apparent when DC were incubated with OVA at 4° C.

[2] = system: Bone marrow derived dendritic cells (BMDC); assay: DQ-OVA uptake and processing by bone marrow derived dendritic cells (flow cytometry); assay type: cell-based, mouse; settings: for uptake and processing of DQ-OVA by DC (fluorescence): 37° C., versus DQ-OVA in media alone
Procedure: FIG. 1 provides a graph showing that DOTAP enhancement of antigen processing is specific for dendritic cells. Bone marrow derived dendritic cells were incubated with DQ-OVA in the presence of various concentrations of DOTAP as shown. In addition, a mouse epithelial cell line, TC1, was treated in an identical fashion.
FIG. 2 provides fluorescence readings for receptor mediated uptake. R-DOTAP nanoparticles, but not MPL stimulate uptake and processing by DC within 10 minutes. Mouse bone marrow DC were incubated in the presence of fluorescent DQ-OVA for one hour at either 37° C. or 4° C./azide in the presence of 25 uM DOTAP nanoparticles, 10 ug/ml MPL or media alone, and analyzed by flow cytometry. On the presented density plot, the y-axis represents the amount of green fluorescence which results from uptake and processing of the protein, while the x-axis represents the amount of red fluorescence resulting from concentration in endosomal vesicles.
To determine the effects of cationic lipids on antigen uptake and processing by dendritic cells, a fluorescent ovalbumin protein called DQ-OVA was used. DQ-OVA is non-fluorescent when intact, but emits both red and green fluorescence when the protein is degraded. Dendritic cells were grown from mouse bone marrow by culturing for 8 days in GMCSF+IL-4 (hereafter referred to as BMDC). BMDC were incubated at 37° C. or 4° C. for 1 hour with DQ-OVA alone, or DQ-OVA mixed with different concentrations of the cationic lipid R-DOTAP. The cells were then washed, fixed, and stained with fluorescent antibodies to CD11c, a marker for dendritic cells. Cells were then analyzed on an LSRII flow cytometer in both red and green fluorescent channels.
To determine whether non-cationic lipid adjuvants could mediate the same effect as DOTAP, BMDC were incubated with DQ-OVA in media alone or with DOTAP as described for FIG. 1. In addition, BMDC were incubated under identical conditions with the potent lipid adjuvant […] (MPL).

[3] = system: T-cells and total lymphocytes in popliteal lymph nodes; assay: T-cell and lymphocyte infiltration into draining lymph nodes after foot pad injection; assay type: in vivo, mice
Source text: FIG. 10 provides a graph showing that R-DOTAP injection induces the migration of lymphocytes including T-lymphocytes into the draining lymph nodes. […] R-DOTAP injection is represented by striped bars, and the control is represented by shaded bars.
To better understand the ability of T-cell activating cationic lipids such as R-DOTAP to promote the induction of the effector CD8+ T-cells, which are also critical in altering the tumor's microenvironment, the impact of R-DOTAP vaccination on B and T-cells was studied. 12 mM R-DOTAP or sucrose as control were injected into the right and left foot pad respectively of mice and the influx of T-cells and total lymphocytes into the draining lymph nodes were quantified by flow cytometry. In this experiment, 15 hours after vaccination the popliteal lymph nodes were removed and analysis performed. […] Five mice were used per study.

[4] = system: HPV16-positive TC-1 tumors; assay: Regression of established TC-1 tumors, R- versus S-DOTAP, administered Day 6; assay type: in vivo, mice; settings: 1×10E^5 TC-1 cells day 0, administered on Day 6
Procedure: Effect of R-DOTAP (solid squares), R-DOTAP/HPV16-E7 (clear squares) and S-DOTAP/HPV16-E7 (solid circles) vaccination on regression of established HPV16-positive TC-1 tumors. The HPV16 E7 peptide used in the vaccine (SEQ ID NO: 2) is labelled KF18. Tumor volumes were measured using calipers.
R-DOTAP only, R-DOTAP/HPV16 E7 (SEQ ID NO: 2) and S-DOTAP/HPV16 E7 (SEQ ID NO: 2) were administered on Day 6 after tumor implantation.

[5] = system: HPV16-specific CD8+ T-cells; assay: HPV16-specific CD8+ T-cell induction after vaccination, ELISPOT of splenocytes; assay type: in vivo, C57 black mice; settings: given with KF18 HPV peptide, vaccinated Day 0 and Day 7, splenocytes Day 14, stimulated with RAHYNIVTF
Source text: Effect of HPV16-E7, R-DOTAP/HPV16-E7, S-DOTAP/HPV16-E7 and Alum/MPL/HPV16-E7 vaccination on HPV16-specific CD8+ T-cell induction by ELISpot. The HPV16 E7 peptide used in the vaccine (SEQ ID NO: 2) is labelled KF18.
C57 black mice were vaccinated with various formulations: • Group 1: KF18 HPV peptide • Group 2: KF18 HPV peptide+R-DOTAP liposomes • Group 3: KF18 HPV peptide+S-DOTAP liposomes • Group 4: KF18 peptide+MPL/Alum adjuvant • *For each of the groups above, the KF18 HPV peptide corresponds to Palmitoyl-KSS-[…] (SEQ ID NO: 2)
5 mice per group were injected with the various formulations. The mice were vaccinated on Day 0 and Day 7 and sacrificed on Day 14. The splenocytes were removed and ELISPOT studies performed. The splenocytes were stimulated with the peptide […] (SEQ ID NO: 3), the HPV16 CD8+ T-cell epitope peptide recognized by the C57 mice.

[6] = system: CFSE labeled lymphocytes in popliteal LN; assay: Lymph node homing of CFSE labeled adoptively transferred spleen cells, with or without pertussis toxin; assay type: in vivo, B6 mice; settings: after 16 h
Source text: The primary objective of the current experiment was to understand if T-cell infiltration induced by R-DOTAP is chemokine dependent. We utilized 5 mice to perform the study, and visualized the homing of CFSE labeled adoptively transferred cells. The study included a population of cells that had been treated in vitro with pertussis toxin to inactivate chemokine receptors. Pertussis toxin-treated and untreated cells were labeled with two different concentrations of CFSE so that they could be distinguished by flow cytometry.
Spleen cells were prepared from a single B6 mouse and divided in half. Half of the cells were treated with Pertussis toxin 100 ng/ml for 1 hour at 37° C. and washed. The two cell populations were then labeled with CFSE at two different concentrations so they could be distinguished by flow cytometry, and mixed together. The mix (10e7 cells) was injected i.v. into the tail vein of 5 B6 mice. The mice were then anesthetized and injected in the footpad with either sucrose (right footpad) or R-DOTAP (left footpad, 50 ul, 600 nmoles).
After 16 h, the mice were sacrificed and the popliteal LN and spleens harvested. The total cells recovered from left and right nodes from each mouse were counted.

[7] = system: T regulatory cells (CD45+CD3+CD4+CD25+Foxp3+) in tumor; assay: Regulatory T cell population within TC-1 tumors (flow cytometry); assay type: in vivo, C57 mice; settings: Day 19, within 1 week of vaccination (Day 12)
Procedure: FIG. 6: provides a graph showing that R-DOTAP and R-DOTAP+antigen uniquely reduce the population of regulatory T cells within the tumors after vaccination. 1×10^5 cells implanted subcutaneously on the right side of the abdomen of female B6 mice on day 0 and were vaccinated on day 12 and on day 19 post Tumor implant. T regulatory cells (CD45+CD3+CD4+CD25+Foxp3+) cells infiltrated into tumors on day 19. The reduction is calculated as the ratio of total T reg cells in tumor/average T reg cell in tumor and normalized to T reg cells in naïve mouse. Data represents mean±SEM of 4-5 mice in each group. * Statistically significant R-DOTAP+antigen compared to all other groups (other than R-DOTAP only). P<0.01.
C57 mice were divided into the following groups of 8 mice per group: • Group 1: R-DOTAP+KF18 (SEQ ID NO: 2) • Group 2: GM-CSF+KF18 (SEQ ID NO: 2) • Group 3: R-DOTAP • Group 4: GM-CSF • Group 5: KF18 (SEQ ID NO: 2) • Group 6: Naïve mice (tumor bearing and untreated). • 1×10E^5 TC-1 tumor cells were injected into the flank of the mice on day 0. The various formulations were administered on Days 12 and 19 after tumor implantation. […]

HPV-positive TC-1 tumors = assay: Regression of established TC-1 tumors, vaccination Days 12 and 19; assay type: in vivo, C57 mice
Procedure: Tumors were implanted on Day 0 and the mice vaccinated on Days 12 and 19. Tumor volumes were measured using calipers. The naïve mice group are tumor bearing mice that remained untreated. […] P<0.01.
C57 mice were divided into the following groups of 8 mice per group: • Group 1: R-DOTAP+KF18 (SEQ ID NO: 2) • Group 2: GM-CSF+KF18 (SEQ ID NO: 2) • Group 3: R-DOTAP • Group 4: GM-CSF • Group 5: KF18 (SEQ ID NO: 2) • Group 6: Naïve mice (tumor bearing and untreated). • 1×10E^5 TC-1 tumor cells were injected into the flank of the mice on day 0. The various formulations were administered on Days 12 and 19 after tumor implantation.
The third group of animals who were treated with either R-DOTAP alone or GM-CSF alone without antigen, or left untreated (Treg/CD8+ ratio >30) had tumor volumes of 300-700 mm^3.

Compound: CCCCCCCC/C=C\CCCCCCCC(=O)OCC(C[N+](C)(C)C)OC(=O)CCCCCCC/C=C\CCCCCCCC (stereo not shown) [DOTAP, 1,2-dioleoyl-3-trimethylammonium propane]
- cross-presentation of OVA antigen by DC to CD8+ T cells [1]: much more efficiently
- uptake of DQ-OVA by DC at 4° C. ([2]; BMDC with DQ-OVA, 1 hour, 4° C.): Significant uptake
- uptake and processing of DQ-OVA by DC (fluorescence) ([2]; BMDC with DQ-OVA, 1 hour): significant increase of fluorescence
- concentration showing the greatest effect on DQ-OVA uptake ([2]; concentration dependent effect in BMDC): 50 µM

Compound: CCCCCCCC/C=C\CCCCCCCC(=O)OCC(C[N+](C)(C)C)OC(=O)CCCCCCC/C=C\CCCCCCCC (stereo not shown) [R-DOTAP, 1,2-dioleoyl-3-trimethylammonium propane]
- infiltration of T-cells into the draining lymph node ([3]; 12 mM, foot pad, 15 hours after vaccination, sucrose as control): significant infiltration of T-cells into the lymph node
- lymphocyte infiltration into the lymph nodes over time ([3]; 5 hours, 16 hours, 3 days and 4 days): increase over the 4-day period
- time within which uptake and processing by DC is stimulated ([2]; 25 uM DOTAP nanoparticles, FIG. 2 legend): ≤ 10 min
- uptake and processing of DQ-OVA by DC (fluorescence) ([2]; BMDC with DQ-OVA, 1 hour): greatly enhanced
- anti-tumor effect on established TC-1 tumors [4]: lack of regression or inhibition of growth
- HPV-specific CD8+ T-cell response (ELISPOT) [5]: effective in inducing strong HPV-specific CD8+ T-cell responses
- infiltration of pertussis toxin treated CFSE labeled cells into the lymph node ([6]; cells treated with Pertussis toxin 100 ng/ml): did not occur
- infiltration of transferred CFSE labeled lymphocytes into the lymph node ([6]; untreated cells, footpad 50 ul, 600 nmoles): infiltrated the lymph node
- reduction in the Treg population within the tumors [7]: about 20%

Compound: CCCCCCCC/C=C\CCCCCCCC(=O)OCC(C[N+](C)(C)C)OC(=O)CCCCCCC/C=C\CCCCCCCC (stereo not shown) [S-DOTAP, 1,2-dioleoyl-3-trimethylammonium propane]
- uptake and processing of DQ-OVA by DC (fluorescence) ([2]; BMDC with DQ-OVA, 1 hour): no difference
- HPV-specific CD8+ T-cell response (ELISPOT) [5]: did not result in an enhanced CD8+ T-cell response beyond what was seen with the peptide alone

Compound: Monophorphoryl lipid-A [MPL, reference compound]
- uptake and processing of DQ-OVA by DC (fluorescence) ([2]; BMDC with DQ-OVA, 1 hour): no such enhancement
- HPV-specific CD8+ T-cell response (ELISPOT) [5]: significantly lower CD8+ T-cell response compared to R-DOTAP

Compound: Palmitoyl-KSS-GQAEPDRAHYNIVTF (Palmitoyl-KSSGQAEPDRAHYNIVTF) [KF18]
- tumor volume (HPV-positive TC-1 tumors; vaccinated Days 12 and 19, Day 26): about 200 mm^3
- tumor regression / elimination (HPV-positive TC-1 tumors; vaccinated Days 12 and 19, by Day 26): did not induce any tumor regression but rather inhibited tumor growth
